Source: the NIST ThermoML archive (doi:10.1021/je1002237)

Assay: xn = mol fraction of the nth substance listed
Details: 101 kPa, Liquid

CCOS(=O)(=O)[O-].CCn1cc[n+](C)c1 [1-ethyl-3-methylimidazolium ethyl sulfate] + CO
mass density [kg/m3]
Details | 278.15 K | 283.15 K | 288.15 K | 293.15 K | 298.15 K | 303.15 K | 308.15 K
x2 = 0 | 1251.04 | 1247.5 | 1244.04 | 1240.66 | 1237.27 | 1233.89 | 1230.51
x2 = 0.005 | 1250.51 | 1246.96 | 1243.52 | 1240.13 | 1236.74 | 1233.36 | 1229.98
x2 = 0.0097 | 1250.12 | 1246.57 | 1243.14 | 1239.75 | 1236.36 | 1232.97 | 1229.59
x2 = 0.015 | 1249.8 | 1246.24 | 1242.81 | 1239.42 | 1236.02 | 1232.63 | 1229.24
x2 = 0.0252 | 1248.78 | 1245.23 | 1241.82 | 1238.42 | 1235.02 | 1231.63 | 1228.25
x2 = 0.0403 | 1247.44 | 1243.88 | 1240.48 | 1237.07 | 1233.67 | 1230.27 | 1226.88
x2 = 0.0598 | 1245.64 | 1242.13 | 1238.72 | 1235.31 | 1231.89 | 1228.49 | 1225.09
x2 = 0.08 | 1243.77 | 1240.29 | 1236.86 | 1233.44 | 1230.02 | 1226.61 | 1223.2
x2 = 0.1001 | 1241.79 | 1238.35 | 1234.91 | 1231.47 | 1228.05 | 1224.63 | 1221.22
x2 = 0.15 | 1236.8 | 1233.34 | 1229.88 | 1226.42 | 1222.98 | 1219.54 | 1216.12
x2 = 0.2 | 1231.24 | 1227.75 | 1224.26 | 1220.78 | 1217.32 | 1213.87 | 1210.42
x2 = 0.3 | 1218.1 | 1214.56 | 1211.02 | 1207.5 | 1203.99 | 1200.5 | 1197.01
x2 = 0.4 | 1201.9 | 1198.3 | 1194.72 | 1191.15 | 1187.59 | 1184.05 | 1180.51
x2 = 0.4999 | 1180.84 | 1177.18 | 1173.54 | 1169.91 | 1166.29 | 1162.69 | 1159.1
x2 = 0.6 | 1153.55 | 1149.82 | 1146.1 | 1142.4 | 1138.71 | 1135.03 | 1131.37
x2 = 0.7 | 1115.57 | 1111.73 | 1107.91 | 1104.11 | 1100.31 | 1096.53 | 1092.76
x2 = 0.8 | 1059.76 | 1055.79 | 1051.82 | 1047.87 | 1043.92 | 1039.98 | 1036.05
x2 = 0.9 | 971.1 | 966.89 | 962.68 | 958.49 | 954.29 | 950.1 | 945.91
x2 = 0.95 | 902.84 | 898.44 | 894.05 | 889.67 | 885.26 | 880.86 | 876.46
x2 = 0.98 | 849.24 | 844.69 | 840.15 | 835.63 | 831.05 | 826.49 | 821.91

CCOS(=O)(=O)[O-].CCn1cc[n+](C)c1 [1-ethyl-3-methylimidazolium ethyl sulfate] + ClCCl
x2 = 0
Details | mass density [kg/m3]
278.15 K | 1251.04
283.15 K | 1247.5
288.15 K | 1244.04
293.15 K | 1240.66
298.15 K | 1237.27
303.15 K | 1233.89
308.15 K | 1230.51

CCOS(=O)(=O)[O-].CCn1cc[n+](C)c1 [1-ethyl-3-methylimidazolium ethyl sulfate] + O
mass density [kg/m3]
Details | 278.15 K | 283.15 K | 288.15 K | 293.15 K | 298.15 K | 303.15 K | 308.15 K
x2 = 0 | 1250.63 | 1247.18 | 1243.79 | 1240.39 | 1237 | 1233.63 | 1230.27
x2 = 0.0136 | 1250.46 | 1246.91 | 1243.47 | 1240.09 | 1236.7 | 1233.31 | 1229.93
x2 = 0.0253 | 1250.19 | 1246.63 | 1243.21 | 1239.82 | 1236.42 | 1233.03 | 1229.65
x2 = 0.0415 | 1249.8 | 1246.24 | 1242.85 | 1239.46 | 1236.06 | 1232.67 | 1229.29
x2 = 0.0729 | 1249.17 | 1245.66 | 1242.27 | 1238.88 | 1235.48 | 1232.09 | 1228.7
x2 = 0.1429 | 1247.67 | 1244.26 | 1240.85 | 1237.44 | 1234.04 | 1230.64 | 1227.25
x2 = 0.2344 | 1245.53 | 1242.12 | 1238.69 | 1235.28 | 1231.86 | 1228.46 | 1225.06
x2 = 0.392 | 1239.94 | 1236.5 | 1233.06 | 1229.63 | 1226.2 | 1222.78 | 1219.36
x2 = 0.5695 | 1228.84 | 1225.35 | 1221.87 | 1218.47 | 1214.98 | 1211.55 | 1208.12
x2 = 0.7408 | 1207.89 | 1204.4 | 1200.9 | 1197.39 | 1193.86 | 1190.33 | 1186.78
x2 = 0.9032 | 1149.37 | 1146.18 | 1142.95 | 1139.65 | 1136.37 | 1133.02 | 1129.61
x2 = 0.9577 | 1094.19 | 1091.9 | 1089.5 | 1086.99 | 1084.4 | 1081.7 | 1078.89
x2 = 0.984 | 1045.11 | 1043.88 | 1042.43 | 1040.71 | 1038.74 | 1036.44 | 1033.81
x2 = 0.9923 | 1023.67 | 1022.91 | 1021.88 | 1020.61 | 1019.12 | 1017.42 | 1015.54
x2 = 0.9963 | 1012.18 | 1011.69 | 1010.85 | 1009.45 | 1008.24 | 1006.56 | 1004.39
